Source: ChEMBL document CHEMBL4177668, “Synthesis and biological evaluation of thiazole derivatives as GPR119 agonists” (Bioorg Med Chem Lett, 2017)
Active and inactive are the calls of the source. The calls are words filed in the database; no cut-off is given here.

Columns and labels:
[1] = biological target: T1, Glucose-dependent insulinotropic receptor (Homo sapiens) (UniProt Q8TDV5); test: Activation of human GPR119 expressed in CHOK1 cells co-expressing CRE-luciferase at 1 uM after 6 hrs by luciferase reporter gene assay relative to GSK1292263; type: functional, cell-based
T1 sequence (whole entry): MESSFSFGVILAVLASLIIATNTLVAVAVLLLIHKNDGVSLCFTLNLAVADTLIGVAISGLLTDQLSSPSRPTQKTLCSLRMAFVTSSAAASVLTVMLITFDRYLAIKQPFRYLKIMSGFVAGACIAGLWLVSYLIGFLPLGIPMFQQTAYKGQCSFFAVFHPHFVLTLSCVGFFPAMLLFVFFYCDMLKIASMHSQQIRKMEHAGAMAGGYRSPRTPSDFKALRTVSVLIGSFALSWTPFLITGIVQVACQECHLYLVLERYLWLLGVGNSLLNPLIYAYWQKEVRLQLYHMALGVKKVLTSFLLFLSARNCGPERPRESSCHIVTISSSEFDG

[2] = biological target: T2, Glucose-dependent insulinotropic receptor (Homo sapiens, UniProt Q8TDV5); test: Agonist activity at human GPR119 expressed in CHOK1 cells co-expressing CRE-luciferase after 6 hrs by luciferase reporter gene assay; type: functional, cell-based
T2 sequence (Q8TDV5 whole entry): T1 sequence (whole entry)

Cytochrome P450 2A6 = biological target: T3, Cytochrome P450 2A6 (Homo sapiens, UniProt P11509); test: Inhibition of CYP2A6 (unknown origin); type: ADME
T3 sequence (P11509 whole entry): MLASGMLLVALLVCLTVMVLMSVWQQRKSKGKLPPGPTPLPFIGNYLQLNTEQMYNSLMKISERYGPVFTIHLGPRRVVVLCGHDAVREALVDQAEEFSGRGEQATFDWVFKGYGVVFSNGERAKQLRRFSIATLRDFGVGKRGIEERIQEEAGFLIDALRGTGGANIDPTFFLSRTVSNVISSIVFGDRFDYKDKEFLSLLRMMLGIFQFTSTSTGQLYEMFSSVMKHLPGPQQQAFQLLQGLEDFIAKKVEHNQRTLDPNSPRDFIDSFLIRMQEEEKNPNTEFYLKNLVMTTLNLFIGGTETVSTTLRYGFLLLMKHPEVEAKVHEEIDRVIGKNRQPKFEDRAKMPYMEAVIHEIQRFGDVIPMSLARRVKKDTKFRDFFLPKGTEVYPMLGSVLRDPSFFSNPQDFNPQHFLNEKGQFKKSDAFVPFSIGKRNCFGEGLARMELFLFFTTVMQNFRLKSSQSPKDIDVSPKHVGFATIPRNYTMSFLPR

Cytochrome P450 1A2 = biological target: T4, Cytochrome P450 1A2 (Homo sapiens, UniProt P05177); test: Inhibition of CYP1A2 (unknown origin); type: ADME
T4 sequence (P05177 whole entry): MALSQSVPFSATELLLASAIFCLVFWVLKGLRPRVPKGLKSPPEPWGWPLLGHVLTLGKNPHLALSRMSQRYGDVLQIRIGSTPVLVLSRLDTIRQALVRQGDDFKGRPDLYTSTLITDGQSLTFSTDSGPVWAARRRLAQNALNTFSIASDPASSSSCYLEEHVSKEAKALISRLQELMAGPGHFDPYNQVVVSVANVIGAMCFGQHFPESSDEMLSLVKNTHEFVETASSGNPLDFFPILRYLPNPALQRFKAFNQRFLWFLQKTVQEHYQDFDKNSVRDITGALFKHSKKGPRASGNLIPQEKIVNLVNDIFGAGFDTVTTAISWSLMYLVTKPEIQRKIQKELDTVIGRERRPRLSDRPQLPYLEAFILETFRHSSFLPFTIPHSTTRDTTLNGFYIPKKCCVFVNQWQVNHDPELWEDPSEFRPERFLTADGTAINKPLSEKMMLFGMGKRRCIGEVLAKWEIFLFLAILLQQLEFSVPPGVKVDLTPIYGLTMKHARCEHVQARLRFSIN

Mus musculus = test: Antidiabetic activity in C57BL/6 mouse assessed as decrease in plasma glucose AUC at 30 mg/kg, po pretreated for 30 mins followed by glucose challenge measured up to 120 mins by oGTT assay; type: functional, organism-based
Cytochrome P450 2C19 = Cytochrome P450 2C19 (Homo sapiens, UniProt P33261); test: Inhibition of CYP2C19 (unknown origin); type: ADME
Cytochrome P450 2D6 = Cytochrome P450 2D6 (Homo sapiens, UniProt P10635); test: Inhibition of CYP2D6 (unknown origin); type: ADME
Cytochrome P450 3A4 = Cytochrome P450 3A4 (Homo sapiens, UniProt P08684); test: Inhibition of CYP3A4 (unknown origin); type: ADME
hERG (KCNH2) = hERG (KCNH2) (Homo sapiens, UniProt Q12809); test: Inhibition of human ERG at 10 uM
L929 = test: Cytotoxicity against mouse L929 cells; type: cell-based
[3] = Metabolic stability in human liver microsomes assessed as compound remaining after 30 mins; type: ADME, microsome; conditions: read-out: Stability
HFL1 = test: Cytotoxicity against HFL1 cells; type: cell-based; conditions: Homo sapiens
[4] = Metabolic stability in rat liver microsomes assessed as compound remaining after 30 mins; type: ADME, microsome; conditions: read-out: Stability
NIH3T3 = test: Cytotoxicity against mouse NIH/3T3 cells; type: cell-based
Vero = test: Cytotoxicity against African green monkey Vero cells; type: cell-based; conditions: Chlorocebus sabaeus
CHO-K1 = test: Cytotoxicity against CHOK1 cells; type: cell-based; conditions: Cricetulus griseus

Chain of Cytochrome P450 3A4 (P08684 whole entry): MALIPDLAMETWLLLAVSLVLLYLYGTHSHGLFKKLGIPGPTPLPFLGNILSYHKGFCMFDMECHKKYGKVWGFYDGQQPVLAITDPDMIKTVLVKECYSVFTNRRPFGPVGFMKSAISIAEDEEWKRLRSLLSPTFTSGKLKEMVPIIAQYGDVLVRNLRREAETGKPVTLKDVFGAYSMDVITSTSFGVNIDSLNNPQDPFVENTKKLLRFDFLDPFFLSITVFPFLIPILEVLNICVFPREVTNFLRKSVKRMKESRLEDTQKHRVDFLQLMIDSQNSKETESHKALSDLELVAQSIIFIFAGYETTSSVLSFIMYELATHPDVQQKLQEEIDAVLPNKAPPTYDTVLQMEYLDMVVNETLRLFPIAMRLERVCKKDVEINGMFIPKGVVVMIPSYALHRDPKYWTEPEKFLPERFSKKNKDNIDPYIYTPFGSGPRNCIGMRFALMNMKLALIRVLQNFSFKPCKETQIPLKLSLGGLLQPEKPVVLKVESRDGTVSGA
Chain of Cytochrome P450 2C19 (P33261 whole entry): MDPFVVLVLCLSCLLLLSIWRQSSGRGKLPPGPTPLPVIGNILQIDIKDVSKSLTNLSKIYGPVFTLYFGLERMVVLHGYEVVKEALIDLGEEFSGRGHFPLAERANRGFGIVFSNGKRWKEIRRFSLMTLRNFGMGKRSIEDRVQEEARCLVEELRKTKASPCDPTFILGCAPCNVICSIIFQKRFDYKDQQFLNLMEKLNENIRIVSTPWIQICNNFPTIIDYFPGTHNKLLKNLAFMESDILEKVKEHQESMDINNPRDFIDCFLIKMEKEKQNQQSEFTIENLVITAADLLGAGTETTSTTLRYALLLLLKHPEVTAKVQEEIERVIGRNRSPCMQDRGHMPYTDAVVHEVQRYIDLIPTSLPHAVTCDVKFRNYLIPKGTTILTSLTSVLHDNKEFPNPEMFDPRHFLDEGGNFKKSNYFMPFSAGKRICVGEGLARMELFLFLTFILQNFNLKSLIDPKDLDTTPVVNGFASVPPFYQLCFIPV
Chain of Cytochrome P450 2D6 (P10635 whole entry): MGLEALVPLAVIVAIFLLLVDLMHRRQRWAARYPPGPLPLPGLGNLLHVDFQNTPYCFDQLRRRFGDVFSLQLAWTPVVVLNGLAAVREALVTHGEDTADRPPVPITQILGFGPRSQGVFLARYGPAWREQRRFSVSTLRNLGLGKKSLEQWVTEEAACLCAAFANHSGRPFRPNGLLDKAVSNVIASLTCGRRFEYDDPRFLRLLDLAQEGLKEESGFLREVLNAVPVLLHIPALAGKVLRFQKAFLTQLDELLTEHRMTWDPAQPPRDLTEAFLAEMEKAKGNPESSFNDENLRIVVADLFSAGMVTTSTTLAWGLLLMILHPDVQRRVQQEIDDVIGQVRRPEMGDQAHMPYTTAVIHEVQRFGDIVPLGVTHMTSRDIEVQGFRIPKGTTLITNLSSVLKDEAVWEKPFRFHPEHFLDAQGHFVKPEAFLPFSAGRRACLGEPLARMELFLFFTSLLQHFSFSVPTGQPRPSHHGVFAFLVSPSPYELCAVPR
Chain of hERG (KCNH2) (Q12809 whole entry): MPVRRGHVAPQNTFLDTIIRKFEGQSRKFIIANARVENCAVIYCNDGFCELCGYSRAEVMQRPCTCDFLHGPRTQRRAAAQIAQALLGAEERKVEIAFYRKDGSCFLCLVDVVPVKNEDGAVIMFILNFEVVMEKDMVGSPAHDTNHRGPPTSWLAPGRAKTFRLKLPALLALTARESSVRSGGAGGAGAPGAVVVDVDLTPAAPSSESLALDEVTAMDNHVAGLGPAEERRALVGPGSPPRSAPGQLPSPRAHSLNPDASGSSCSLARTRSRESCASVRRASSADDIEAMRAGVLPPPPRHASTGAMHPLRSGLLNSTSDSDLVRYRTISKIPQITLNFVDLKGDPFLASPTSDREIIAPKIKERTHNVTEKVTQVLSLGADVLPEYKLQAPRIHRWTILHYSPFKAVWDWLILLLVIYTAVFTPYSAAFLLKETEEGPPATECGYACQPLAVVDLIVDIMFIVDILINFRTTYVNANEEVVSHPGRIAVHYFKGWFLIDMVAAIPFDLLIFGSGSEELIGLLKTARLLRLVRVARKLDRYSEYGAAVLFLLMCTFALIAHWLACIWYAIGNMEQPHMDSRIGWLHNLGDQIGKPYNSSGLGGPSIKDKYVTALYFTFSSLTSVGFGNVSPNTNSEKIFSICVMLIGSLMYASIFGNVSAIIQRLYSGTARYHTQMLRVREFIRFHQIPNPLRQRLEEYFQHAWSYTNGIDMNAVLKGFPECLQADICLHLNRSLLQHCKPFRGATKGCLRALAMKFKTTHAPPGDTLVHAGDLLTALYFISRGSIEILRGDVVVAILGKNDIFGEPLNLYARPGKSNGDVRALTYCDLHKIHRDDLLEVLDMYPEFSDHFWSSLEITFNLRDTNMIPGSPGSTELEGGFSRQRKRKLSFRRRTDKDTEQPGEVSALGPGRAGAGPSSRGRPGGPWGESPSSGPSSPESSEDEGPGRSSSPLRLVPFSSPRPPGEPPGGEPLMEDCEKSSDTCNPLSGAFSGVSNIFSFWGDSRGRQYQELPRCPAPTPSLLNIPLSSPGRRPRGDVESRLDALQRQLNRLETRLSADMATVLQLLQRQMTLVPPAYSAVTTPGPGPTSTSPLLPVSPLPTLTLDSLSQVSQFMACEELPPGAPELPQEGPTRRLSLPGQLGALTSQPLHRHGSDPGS

CC(C)(O)CN1CCC(c2nc(COc3c(F)cc(/C=C4\CC(=O)NC4=O)cc3F)cs2)CC1
Activity [1]: 32%

O=C(O)CCc1cnc(N2CCC(c3nc(COc4ccc(-n5cnnn5)cc4)cs3)CC2)nc1
Activity [1]: 29%

Cc1cc(/C=C2\CC(=O)NC2=O)ccc1OCc1csc(C2CCN(C(=O)OC(C)(C)C)CC2)n1
EC50 [2]: 0.019 µM
Activity [1]: 81%

CCc1cnc(N2CCC(c3nc(COc4ccc(/C=C5\CC(=O)N(CC6CCOCC6)C5=O)cc4F)cs3)CC2)nc1
EC50 [2]: 0.24 µM
Activity [1]: 61%

CCc1cnc(N2CCC(c3nc(COc4ccc(/C=C5\CC(=O)N(CCNC(=O)OC(C)(C)C)C5=O)cc4F)cs3)CC2)nc1
Activity [1]: 63%

CC(C)(C)OC(=O)N1CCC(c2nc(COc3ccc(/C=C4\CC(=O)NC4=O)cc3F)cs2)CC1
EC50 [2]: 0.157 µM
Activity [1]: 69%

CC(C)(F)CN1CCC(c2nc(COc3ccc(/C=C4\CC(=O)NC4=O)cc3)cs2)CC1
Activity [1]: 48%

C[N+](C)(C)CCNC(=O)CCc1cnc(N2CCC(c3nc(COc4ccc(-n5cnnn5)cc4)cs3)CC2)nc1
Activity [1]: 28%

CCc1cnc(N2CCC(c3nc(COc4ccc(/C=C5\CC(=O)NC5=O)cc4C)cs3)CC2)nc1
EC50 [2]: 0.018 µM
INH (Cytochrome P450 2A6): > 100 µM
INH (Cytochrome P450 1A2): > 100 µM
Activity (Mus musculus): Active
INH (Cytochrome P450 2C19): > 100 µM
INH (Cytochrome P450 2D6): > 100 µM
INH (Cytochrome P450 3A4): > 13.8 µM
Activity [1]: 90%
inhibition at 10 µM (hERG (KCNH2)): 3.3%
IC50 (L929): > 100 µM
remaining at 0.5 h [3]: 17.1%
IC50 (HFL1): > 100 µM
remaining at 0.5 h [4]: 32.4%
IC50 (NIH3T3): > 100 µM
IC50 (Vero): > 100 µM
IC50 (CHO-K1): > 100 µM

NCCNC(=O)CCc1cnc(N2CCC(c3nc(COc4ccc(-n5cnnn5)cc4)cs3)CC2)nc1
Activity [1]: 27%

CCc1cnc(N2CCC(c3nc(COc4c(F)cc(/C=C5\CC(=O)NC5=O)cc4F)cs3)CC2)nc1
EC50 [2]: 0.211 µM
Activity [1]: 59%

CCc1cnc(N2CCC(c3nc(COc4ccc(/C=C5\CC(=O)N(c6ccccc6)C5=O)cc4F)cs3)CC2)nc1
EC50 [2]: 0.082 µM
Activity [1]: 67%

CCc1cnc(N2CCC(c3nc(COc4ccc(/C=C5\CC(=O)NC5=O)cc4F)cs3)CC2)nc1
EC50 [2]: 0.049 µM
INH (Cytochrome P450 2A6): > 100 µM
INH (Cytochrome P450 1A2): > 100 µM
Activity (Mus musculus): Active
INH (Cytochrome P450 2C19): > 100 µM
INH (Cytochrome P450 2D6): > 100 µM
INH (Cytochrome P450 3A4): > 100 µM
Activity [1]: 94%
inhibition at 10 µM (hERG (KCNH2)): 5.3%
IC50 (L929): > 100 µM
remaining at 0.5 h [3]: 48.9%
IC50 (HFL1): > 100 µM
remaining at 0.5 h [4]: 33%
IC50 (NIH3T3): > 100 µM
IC50 (Vero): > 100 µM
IC50 (CHO-K1): > 100 µM

CCc1cnc(N2CCC(c3nc(COc4ccc(/C=C5\SC(=S)NC5=O)cc4F)cs3)CC2)nc1
Activity [1]: 39%

CCc1cnc(N2CCC(c3nc(COc4ccc(/C=C5\CC(=O)N(CCN)C5=O)cc4F)cs3)CC2)nc1
Activity [1]: 51%

CCc1cnc(N2CCC(c3nc(COc4ccc(/C=C5\CCNC5=O)cc4F)cs3)CC2)nc1
EC50 [2]: 0.1 µM
Activity [1]: 65%

CC(C)(F)CN1CCC(c2nc(COc3c(F)cc(/C=C4\CC(=O)NC4=O)cc3F)cs2)CC1
Activity [1]: 42%

O=C(CCc1cnc(N2CCC(c3nc(COc4ccc(-n5cnnn5)cc4)cs3)CC2)nc1)NOCc1ccccc1
Activity [1]: 26%

CC(C)(O)CN1CCC(c2nc(COc3ccc(/C=C4\CC(=O)NC4=O)cc3F)cs2)CC1
Activity [1]: 31%

CC(C)(C)OC(=O)N1CCC(c2nc(COc3ccc(/C=C4\CC(=O)NC4=O)cc3)cs2)CC1
Activity [1]: 57%

N=C(N)NC(=N)N1CCC(c2nc(COc3ccc(-n4cnnn4)cc3)cs2)CC1
Activity [1]: 20%

CCc1cnc(N2CCC(c3nc(COc4ccc(/C=C5\CC(=O)NC5=O)cc4)cs3)CC2)nc1
EC50 [2]: 0.182 µM
Activity [1]: 71%

CCc1cnc(N2CCC(c3nc(COc4ccc(/C=C5\SC(=O)NC5=O)cc4F)cs3)CC2)nc1
EC50 [2]: 0.78 µM
Activity [1]: 60%

CC(C)(C)OC(=O)NCCNC(=O)CCc1cnc(N2CCC(c3nc(COc4ccc(-n5cnnn5)cc4)cs3)CC2)nc1
Activity [1]: 30%

[N-]=[N+]=NCCOCCOCCOCCNC(=O)CCc1cnc(N2CCC(c3nc(COc4ccc(-n5cnnn5)cc4)cs3)CC2)nc1
Activity [1]: 25%

CC(C)(C)OC(=O)N1CCC(c2nc(COc3c(F)cc(/C=C4\CC(=O)NC4=O)cc3F)cs2)CC1
Activity [1]: 41%

CCOC(=O)CCc1cnc(N2CCC(c3nc(COc4ccc(-n5cnnn5)cc4)cs3)CC2)nc1
Activity [1]: 34%

Cc1cc(/C=C2\CC(=O)NC2=O)ccc1OCc1csc(C2CCN(CC(C)(C)O)CC2)n1
Activity [1]: 36%

CCc1cnc(N2CCC(c3nc(COc4ccc(/C=C5\SC(=S)N(N)C5=O)cc4F)cs3)CC2)nc1
Activity [1]: 43%

CC(C)(F)CN1CCC(c2nc(COc3ccc(/C=C4\CC(=O)NC4=O)cc3F)cs2)CC1
Activity [1]: 53%

CC(C)(O)CN1CCC(c2nc(COc3ccc(/C=C4\CC(=O)NC4=O)cc3)cs2)CC1
Activity [1]: 27%

CCc1cnc(N2CCC(c3nc(COc4ccc(/C=C/C(=O)O)cc4F)cs3)CC2)nc1
Activity [1]: 55%

Cc1cc(/C=C2\CC(=O)NC2=O)ccc1OCc1csc(C2CCN(CC(C)(C)F)CC2)n1
Activity [1]: 46%

CCc1cnc(N2CCC(c3nc(COc4ccc(/C=C5\CC(=S)N(CC(=O)O)C5=O)cc4F)cs3)CC2)nc1
Activity [1]: 32%

NC(=O)CCc1cnc(N2CCC(c3nc(COc4ccc(-n5cnnn5)cc4)cs3)CC2)nc1
Activity [1]: 22%

NCCOCCOCCOCCNC(=O)CCc1cnc(N2CCC(c3nc(COc4ccc(-n5cnnn5)cc4)cs3)CC2)nc1
Activity [1]: 28%

CC(C)(C)OC(=O)N1CCC(c2nc(COc3ccc(-n4cnnn4)cc3)cs2)CC1
EC50 [2]: 0.103 µM
Activity [1]: 118%

CCc1cnc(N2CCC(c3nc(COc4ccc(/C=C5\CC(=O)N(CCN6CCOCC6)C5=O)cc4F)cs3)CC2)nc1
Activity [1]: 49%
